{"source": "patent US7547776B1", "about": "“Process for the production of fludarabine-phosphate lithium, sodium, potassium, calcium and magnesium salts and purification process for the production of fludarabine-phosphate and fludarabine-phosphate with a purity of at least 99.5%” (Bayer Schering Pharma Aktiengesellschaft, priority 1997, dated 2009)", "origin": "cited, not measured here", "settings": "in water at approximately 75° C. (recrystallization)"}
{"compound": "Nc1nc(F)nc2c1ncn2[C@@H]1O[C@H](COP(=O)(O)O)[C@@H](O)[C@@H]1O", "note": "[fludarabine-phosphate, 9-β-D-arabinofuranosyl-2-fluoroadenine-5′-O-dihydrogenphosphate]", "values": [{"measurement": "thermal stability in water", "value": "thermally unstable"}]}
